For experiment [1], the target named is T1, MAST1 (Homo sapiens, UniProt Q9Y2H9).
T1 construct: purchased Eurofins DiscoverX KINOMEscan
In words: KINOMEscan 1 μM, MAST1. Particulars: 1000 nM; Entrez MAST1; read-out: Percent Control. Format: binding. An excerpt: (§1) Supplement cells-12-00287-s001.zip/File S2. KinomeScan data for the CAMKK2 probe and negative control.xlsx, sheet "SGC-CAMKK2-1" | column: Percent Control

In another experiment the target is T2, MET(Y1235D) (Homo sapiens, UniProt P08581, Y1235D).
T2 construct: purchased Eurofins DiscoverX KINOMEscan
T2 sequence (P08581 25-1390 Y1235D): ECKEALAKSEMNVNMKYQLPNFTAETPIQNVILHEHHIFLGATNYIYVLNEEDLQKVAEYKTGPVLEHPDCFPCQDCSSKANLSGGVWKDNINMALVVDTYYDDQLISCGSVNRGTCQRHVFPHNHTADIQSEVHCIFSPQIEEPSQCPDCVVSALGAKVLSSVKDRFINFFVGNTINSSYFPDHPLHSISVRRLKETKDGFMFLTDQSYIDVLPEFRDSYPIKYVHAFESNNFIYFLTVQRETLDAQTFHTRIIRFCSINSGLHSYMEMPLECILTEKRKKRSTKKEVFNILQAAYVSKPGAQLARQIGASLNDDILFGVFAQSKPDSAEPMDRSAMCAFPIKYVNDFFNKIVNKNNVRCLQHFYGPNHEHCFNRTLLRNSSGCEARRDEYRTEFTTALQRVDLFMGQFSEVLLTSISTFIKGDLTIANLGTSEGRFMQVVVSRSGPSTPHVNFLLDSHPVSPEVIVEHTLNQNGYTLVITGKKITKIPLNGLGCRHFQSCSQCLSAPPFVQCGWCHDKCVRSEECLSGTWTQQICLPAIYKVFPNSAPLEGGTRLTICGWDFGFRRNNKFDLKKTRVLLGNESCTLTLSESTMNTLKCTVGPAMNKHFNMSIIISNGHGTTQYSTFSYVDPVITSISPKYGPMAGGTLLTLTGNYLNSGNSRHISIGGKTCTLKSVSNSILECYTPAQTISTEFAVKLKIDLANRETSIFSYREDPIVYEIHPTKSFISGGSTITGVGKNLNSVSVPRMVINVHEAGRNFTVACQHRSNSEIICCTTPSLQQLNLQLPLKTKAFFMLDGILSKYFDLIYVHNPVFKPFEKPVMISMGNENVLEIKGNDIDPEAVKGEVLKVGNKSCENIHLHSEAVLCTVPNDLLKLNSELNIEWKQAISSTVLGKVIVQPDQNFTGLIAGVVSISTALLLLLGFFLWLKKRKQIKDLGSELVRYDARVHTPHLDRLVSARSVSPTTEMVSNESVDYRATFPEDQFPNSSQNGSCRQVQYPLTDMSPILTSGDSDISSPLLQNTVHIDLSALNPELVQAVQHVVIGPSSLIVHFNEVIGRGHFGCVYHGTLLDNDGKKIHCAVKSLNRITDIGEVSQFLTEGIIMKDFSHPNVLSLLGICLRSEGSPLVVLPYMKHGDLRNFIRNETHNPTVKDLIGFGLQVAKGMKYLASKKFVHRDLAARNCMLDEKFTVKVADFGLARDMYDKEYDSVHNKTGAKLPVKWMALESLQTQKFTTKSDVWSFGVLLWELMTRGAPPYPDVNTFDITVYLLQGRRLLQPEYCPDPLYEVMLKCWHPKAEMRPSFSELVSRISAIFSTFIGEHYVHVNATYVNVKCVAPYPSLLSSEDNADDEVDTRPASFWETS
In words: KINOMEscan 1 μM, MET(Y1235D). The experiment is classed as binding. Particulars: 1000 nM; Entrez MET; read-out: Percent Control.
Description: as §1

The next experiment has as its target T3, PRKCE (Homo sapiens, UniProt Q02156).
T3 construct: purchased Eurofins DiscoverX KINOMEscan
Briefly: KINOMEscan 1 μM, PRKCE. The experiment is classed as binding. To be noted: 1000 nM; Entrez PRKCE; read-out: Percent Control.
Description: as §1

For a further experiment, the target named is T4, YES (Homo sapiens, UniProt P07947).
T4 construct: purchased Eurofins DiscoverX KINOMEscan
Briefly: DiscoverX KINOMEscan binding assay at 1 μM, YES. Particulars: YES (YES1); Compound Concentration 1000 nM; read-out: Percent Control.
Description: as §1

A further experiment concerns the target T5, FYN (Homo sapiens, UniProt P06241).
T5 construct: purchased Eurofins DiscoverX KINOMEscan
In words: KINOMEscan 1 μM, FYN. Format: binding. Particulars: 1000 nM; Entrez FYN; read-out: Percent Control.
Description: as §1

The target in the next experiment is T6, EPHB2 (Homo sapiens, UniProt P29323).
T6 construct: purchased Eurofins DiscoverX KINOMEscan
Briefly: KINOMEscan 1 μM, EPHB2. The experiment is classed as binding. Particulars: 1000 nM; Entrez EPHB2; read-out: Percent Control.
Description: as §1

The next experiment addresses T7, MARK2 (Homo sapiens, UniProt Q7KZI7).
T7 construct: purchased Eurofins DiscoverX KINOMEscan
Briefly: KINOMEscan 1 μM, MARK2. The experiment is classed as binding. To be noted: 1000 nM; Entrez MARK2; read-out: Percent Control.
Description: as §1

The next experiment addresses T8, CHEK2 (Homo sapiens, UniProt O96017).
T8 construct: purchased Eurofins DiscoverX KINOMEscan
In words: KINOMEscan 1 μM, CHEK2. The experiment is classed as binding. To be noted: 1000 nM; Entrez CHEK2; read-out: Percent Control.
Description: as §1

Experiment [2] deals with T9, RSK3(Kin.Dom.2-C-terminal) (Homo sapiens, UniProt Q15349).
T9 construct: RSK3(Kin.Dom.2-C-terminal); purchased Eurofins DiscoverX KINOMEscan
T9 sequence (Q15349 389-733 limits assumed): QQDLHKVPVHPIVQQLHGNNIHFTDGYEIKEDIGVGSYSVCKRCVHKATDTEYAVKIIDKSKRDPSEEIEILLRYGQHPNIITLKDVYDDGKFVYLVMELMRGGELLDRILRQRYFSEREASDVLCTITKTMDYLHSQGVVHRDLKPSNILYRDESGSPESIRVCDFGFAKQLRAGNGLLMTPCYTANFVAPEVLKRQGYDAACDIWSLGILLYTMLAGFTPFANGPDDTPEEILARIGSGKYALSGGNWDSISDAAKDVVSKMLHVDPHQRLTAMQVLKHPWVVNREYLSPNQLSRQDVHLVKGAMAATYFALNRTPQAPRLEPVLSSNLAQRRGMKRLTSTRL
Briefly: DiscoverX KINOMEscan binding assay at 1 μM, RSK3(Kin.Dom.2-C-terminal). Particulars: RSK3(Kin.Dom.2-C-terminal) (RPS6KA2); Compound Concentration 1000 nM; read-out: Percent Control.
Description: as §1

A further experiment concerns the target T10, DCAMKL3 (Homo sapiens, UniProt Q9C098).
T10 construct: purchased Eurofins DiscoverX KINOMEscan
Briefly: KINOMEscan 1 μM, DCAMKL3. Format: binding. To be noted: 1000 nM; Entrez DCLK3; read-out: Percent Control.
Description: as §1

For a further experiment, the target named is T11, p38-beta (Homo sapiens, UniProt Q15759).
T11 construct: purchased Eurofins DiscoverX KINOMEscan
Briefly: KINOMEscan 1 μM, p38-beta. Particulars: 1000 nM; Entrez MAPK11; read-out: Percent Control. The experiment is classed as binding.
Description: as §1

In the next experiment the target is T12, RET(V804L) (Homo sapiens, UniProt P07949, V804L).
T12 construct: purchased Eurofins DiscoverX KINOMEscan
T12 sequence (P07949 29-1114 V804L): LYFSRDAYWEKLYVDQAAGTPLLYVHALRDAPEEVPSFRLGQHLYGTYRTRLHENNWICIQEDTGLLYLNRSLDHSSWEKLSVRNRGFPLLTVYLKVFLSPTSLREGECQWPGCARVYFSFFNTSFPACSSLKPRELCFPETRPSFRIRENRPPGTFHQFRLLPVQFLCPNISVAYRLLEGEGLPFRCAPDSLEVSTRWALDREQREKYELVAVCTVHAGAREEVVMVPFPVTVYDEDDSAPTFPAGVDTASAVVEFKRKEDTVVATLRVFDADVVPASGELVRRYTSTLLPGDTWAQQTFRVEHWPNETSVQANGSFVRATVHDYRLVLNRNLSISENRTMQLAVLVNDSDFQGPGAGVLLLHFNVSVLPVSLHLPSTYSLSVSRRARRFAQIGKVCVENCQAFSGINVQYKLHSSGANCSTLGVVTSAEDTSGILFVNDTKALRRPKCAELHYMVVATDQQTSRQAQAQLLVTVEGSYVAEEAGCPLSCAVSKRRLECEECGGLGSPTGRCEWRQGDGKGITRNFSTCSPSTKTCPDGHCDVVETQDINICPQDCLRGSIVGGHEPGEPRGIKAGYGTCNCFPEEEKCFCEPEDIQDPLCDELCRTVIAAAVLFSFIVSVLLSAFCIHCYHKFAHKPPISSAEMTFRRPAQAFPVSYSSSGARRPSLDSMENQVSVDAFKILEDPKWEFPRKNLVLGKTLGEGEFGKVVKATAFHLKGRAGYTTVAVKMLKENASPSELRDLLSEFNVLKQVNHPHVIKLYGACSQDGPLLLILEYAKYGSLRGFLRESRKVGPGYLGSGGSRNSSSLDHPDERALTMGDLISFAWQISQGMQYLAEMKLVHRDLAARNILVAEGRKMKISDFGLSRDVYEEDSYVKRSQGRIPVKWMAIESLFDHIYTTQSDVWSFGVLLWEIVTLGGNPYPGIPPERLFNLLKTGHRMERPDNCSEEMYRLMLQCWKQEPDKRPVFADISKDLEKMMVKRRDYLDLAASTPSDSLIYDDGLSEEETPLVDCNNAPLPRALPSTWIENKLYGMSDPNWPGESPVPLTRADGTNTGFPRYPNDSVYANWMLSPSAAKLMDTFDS
In words: KINOMEscan 1 μM, RET(V804L). The experiment is classed as binding. Particulars: 1000 nM; Entrez RET; read-out: Percent Control.
Description: as §1

The next experiment has as its target T13, PIK3CA(I800L) (Homo sapiens, UniProt P42336, I800L).
T13 construct: purchased Eurofins DiscoverX KINOMEscan
In words: KINOMEscan 1 μM, PIK3CA(I800L). The experiment is classed as binding. Particulars: 1000 nM; Entrez PIK3CA; read-out: Percent Control.
Description: as §1

A further experiment concerns the target T14, DDR1 (Homo sapiens, UniProt Q08345).
T14 construct: purchased Eurofins DiscoverX KINOMEscan
In words: KINOMEscan 1 μM, DDR1. The experiment is classed as binding. Particulars: 1000 nM; Entrez DDR1; read-out: Percent Control.
Description: as §1

A further experiment concerns the target T15, TNK1 (Homo sapiens, UniProt Q13470).
T15 construct: purchased Eurofins DiscoverX KINOMEscan
Briefly: KINOMEscan binding assay at 1 μM, TNK1. Particulars: Compound Concentration 1000 nM; read-out: Percent Control. An excerpt:
(§2) Supplement cells-12-00287-s001.zip/File S2. KinomeScan data for the CAMKK2 probe and negative control.xlsx, sheet "SGC-CAMKK2-1N" | column: Percent Control

A further experiment has as its target T16, MLCK (Homo sapiens, UniProt Q32MK0).
T16 construct: purchased Eurofins DiscoverX KINOMEscan
Briefly: KINOMEscan binding assay at 1 μM, MLCK. Particulars: Compound Concentration 1000 nM; read-out: Percent Control.
Description: as §2

A further experiment addresses T17, DMPK (Homo sapiens, UniProt Q09013).
T17 construct: purchased Eurofins DiscoverX KINOMEscan
In words: KINOMEscan at 1 μM, DMPK. The experiment is classed as binding. To be noted: 1000 nM, read-out: Percent Control.
Description: as §2

A further experiment concerns the target T18, FLT3(D835Y) (Homo sapiens, UniProt P36888, D835Y).
T18 construct: purchased Eurofins DiscoverX KINOMEscan
Briefly: KINOMEscan binding assay at 1 μM, FLT3(D835Y). Particulars: Compound Concentration 1000 nM; read-out: Percent Control.
Description: as §2

A further experiment has as its target T19, GRK3 (Homo sapiens, UniProt P35626).
T19 construct: purchased Eurofins DiscoverX KINOMEscan
Briefly: KINOMEscan at 1 μM, GRK3. Format: binding. To be noted: 1000 nM, read-out: Percent Control.
Description: as §2

In another experiment the target is T20, DYRK1A (Homo sapiens, UniProt Q13627).
T20 construct: purchased Eurofins DiscoverX KINOMEscan
Briefly: KINOMEscan at 1 μM, DYRK1A. Format: binding. Particulars: 1000 nM, read-out: Percent Control.
Description: as §2

The target of the next experiment is T21, HIPK4 (Homo sapiens, UniProt Q8NE63).
T21 construct: purchased Eurofins DiscoverX KINOMEscan
In words: KINOMEscan at 1 μM, HIPK4. The experiment is classed as binding. Particulars: 1000 nM, read-out: Percent Control.
Description: as §2

Another experiment deals with T22, NIK (Homo sapiens, UniProt Q99558).
T22 construct: purchased Eurofins DiscoverX KINOMEscan
In words: KINOMEscan at 1 μM, NIK. Format: binding. To be noted: 1000 nM, read-out: Percent Control.
Description: as §2

For the next experiment, the target named is T23, WEE2 (Homo sapiens, UniProt P0C1S8).
T23 construct: purchased Eurofins DiscoverX KINOMEscan
Briefly: KINOMEscan at 1 μM, WEE2. To be noted: 1000 nM, read-out: Percent Control. Format: binding.
Description: as §2

For a further experiment, the target named is T24, MET (Homo sapiens, UniProt P08581).
T24 construct: purchased Eurofins DiscoverX KINOMEscan
Briefly: KINOMEscan at 1 μM, MET. Particulars: 1000 nM, read-out: Percent Control. Format: binding.
Description: as §2

The test system of the next experiment is FLT3(ITD,F691L). Briefly: KINOMEscan at 1 μM, FLT3(ITD,F691L). The experiment is classed as binding, human. Particulars: 1000 nM.
Description: as §2

Another experiment addresses T25, IRAK1 (Homo sapiens, UniProt P51617).
T25 construct: purchased Eurofins DiscoverX KINOMEscan
In words: KINOMEscan at 1 μM, IRAK1. The experiment is classed as binding. Particulars: 1000 nM, read-out: Percent Control.
Description: as §2

In the next experiment the target is T26, STK35 (Homo sapiens, UniProt Q8TDR2).
T26 construct: purchased Eurofins DiscoverX KINOMEscan
Briefly: KINOMEscan at 1 μM, STK35. The experiment is classed as binding. Particulars: 1000 nM, read-out: Percent Control.
Description: as §2

The target in experiment [3] is T1, MAST1. Briefly: KINOMEscan binding assay at 1 μM, MAST1. To be noted: Compound Concentration 1000 nM; read-out: Percent Control.
Description: as §2

In experiment [4] the target is T27, ABL1(F317L)-phosphorylated (Homo sapiens, UniProt P00519, F317L).
T27 construct: purchased Eurofins DiscoverX KINOMEscan
In words: KINOMEscan at 1 μM, ABL1(F317L)-phosphorylated. Format: binding. To be noted: 1000 nM, read-out: Percent Control.
Description: as §2

In a further experiment the target is T28, PAK1 (Homo sapiens, UniProt Q13153).
T28 construct: purchased Eurofins DiscoverX KINOMEscan
In words: KINOMEscan at 1 μM, PAK1. The experiment is classed as binding. Particulars: 1000 nM, read-out: Percent Control.
Description: as §2

Another experiment has as its target T29, STK16 (Homo sapiens, UniProt O75716).
T29 construct: purchased Eurofins DiscoverX KINOMEscan
In words: KINOMEscan at 1 μM, STK16. Particulars: 1000 nM, read-out: Percent Control. Format: binding.
Description: as §2

In a further experiment the target is T30, ERK8 (Homo sapiens, UniProt Q8TD08).
T30 construct: purchased Eurofins DiscoverX KINOMEscan
Briefly: KINOMEscan at 1 μM, ERK8. The experiment is classed as binding. To be noted: 1000 nM, read-out: Percent Control.
Description: as §2

Another experiment addresses T31, AKT1 (Homo sapiens, UniProt P31749).
T31 construct: purchased Eurofins DiscoverX KINOMEscan
Briefly: KINOMEscan at 1 μM, AKT1. The experiment is classed as binding. To be noted: 1000 nM, read-out: Percent Control.
Description: as §2

The target in a further experiment is T32, PIK3CA(Q546K) (Homo sapiens, UniProt P42336, Q546K).
T32 construct: purchased Eurofins DiscoverX KINOMEscan
In words: KINOMEscan at 1 μM, PIK3CA(Q546K). Format: binding. Particulars: 1000 nM, read-out: Percent Control.
Description: as §2

T1 sequence (Q9Y2H9 whole entry): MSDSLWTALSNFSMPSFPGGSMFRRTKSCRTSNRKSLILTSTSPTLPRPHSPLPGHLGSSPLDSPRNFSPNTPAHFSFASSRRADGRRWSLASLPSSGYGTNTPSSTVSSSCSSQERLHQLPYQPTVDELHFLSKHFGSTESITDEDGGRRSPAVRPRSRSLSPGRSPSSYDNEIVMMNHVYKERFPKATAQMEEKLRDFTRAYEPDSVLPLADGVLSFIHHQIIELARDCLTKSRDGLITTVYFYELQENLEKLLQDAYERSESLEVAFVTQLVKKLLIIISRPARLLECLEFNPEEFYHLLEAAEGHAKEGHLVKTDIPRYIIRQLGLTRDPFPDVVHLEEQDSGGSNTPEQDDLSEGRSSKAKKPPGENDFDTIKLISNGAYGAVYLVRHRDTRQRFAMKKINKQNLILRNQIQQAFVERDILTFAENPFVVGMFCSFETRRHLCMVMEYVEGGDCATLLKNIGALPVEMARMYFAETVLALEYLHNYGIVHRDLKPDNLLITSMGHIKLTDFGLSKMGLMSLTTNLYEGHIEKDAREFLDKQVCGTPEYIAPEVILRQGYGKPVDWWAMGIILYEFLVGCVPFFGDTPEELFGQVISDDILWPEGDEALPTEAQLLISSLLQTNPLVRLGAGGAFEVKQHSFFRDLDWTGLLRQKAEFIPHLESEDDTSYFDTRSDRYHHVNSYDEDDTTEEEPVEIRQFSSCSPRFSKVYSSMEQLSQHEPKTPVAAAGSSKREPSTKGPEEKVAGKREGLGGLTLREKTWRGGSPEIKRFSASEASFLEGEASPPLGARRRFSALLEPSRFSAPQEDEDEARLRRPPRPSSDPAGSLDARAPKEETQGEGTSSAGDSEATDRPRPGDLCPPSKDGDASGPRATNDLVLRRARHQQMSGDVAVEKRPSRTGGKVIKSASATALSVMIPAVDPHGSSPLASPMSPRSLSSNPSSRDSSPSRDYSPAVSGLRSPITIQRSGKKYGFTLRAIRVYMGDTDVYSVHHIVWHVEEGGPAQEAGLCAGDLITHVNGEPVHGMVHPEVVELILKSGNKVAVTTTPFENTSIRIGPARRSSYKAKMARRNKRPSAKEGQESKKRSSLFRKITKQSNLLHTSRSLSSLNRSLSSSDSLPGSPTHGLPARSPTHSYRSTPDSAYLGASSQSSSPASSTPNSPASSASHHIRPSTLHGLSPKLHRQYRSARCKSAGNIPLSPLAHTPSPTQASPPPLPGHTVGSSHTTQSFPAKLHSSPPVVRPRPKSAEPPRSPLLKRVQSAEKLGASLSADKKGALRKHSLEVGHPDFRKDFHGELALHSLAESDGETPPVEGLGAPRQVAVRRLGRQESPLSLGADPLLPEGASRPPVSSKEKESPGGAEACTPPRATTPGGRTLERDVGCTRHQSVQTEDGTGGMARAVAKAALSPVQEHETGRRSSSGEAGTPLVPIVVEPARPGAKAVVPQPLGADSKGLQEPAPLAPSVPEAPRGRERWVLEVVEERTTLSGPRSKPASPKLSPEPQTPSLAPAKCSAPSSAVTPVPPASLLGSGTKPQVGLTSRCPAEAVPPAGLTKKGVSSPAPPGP
T25 sequence (P51617 whole entry): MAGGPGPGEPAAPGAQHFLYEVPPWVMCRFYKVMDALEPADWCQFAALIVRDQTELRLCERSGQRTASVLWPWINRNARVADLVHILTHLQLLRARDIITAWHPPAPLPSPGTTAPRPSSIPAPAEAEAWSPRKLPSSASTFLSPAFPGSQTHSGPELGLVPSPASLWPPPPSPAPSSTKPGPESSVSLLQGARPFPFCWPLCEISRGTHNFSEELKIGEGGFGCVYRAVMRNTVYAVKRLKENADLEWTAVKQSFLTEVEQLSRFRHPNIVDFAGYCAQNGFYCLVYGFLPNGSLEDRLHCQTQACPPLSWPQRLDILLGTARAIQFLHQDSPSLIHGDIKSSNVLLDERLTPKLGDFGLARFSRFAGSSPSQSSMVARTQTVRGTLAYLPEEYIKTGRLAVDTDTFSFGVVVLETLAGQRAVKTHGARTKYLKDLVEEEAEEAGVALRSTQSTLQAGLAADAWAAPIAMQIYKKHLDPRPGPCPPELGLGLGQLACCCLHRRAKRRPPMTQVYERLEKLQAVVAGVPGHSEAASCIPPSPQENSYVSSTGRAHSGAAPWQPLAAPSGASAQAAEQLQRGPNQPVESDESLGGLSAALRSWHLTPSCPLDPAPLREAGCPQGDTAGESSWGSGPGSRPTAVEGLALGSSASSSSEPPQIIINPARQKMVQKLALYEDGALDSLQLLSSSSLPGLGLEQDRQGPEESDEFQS

As to `Cc1cccc(-c2cnc3occ(-c4ccc(C(=O)O)c(C5CCCC5)c4)c3c2)c1` [SGC-CAMKK2-1 (YL-36)], the remaining binding at 1 µM at MAST1 [1] came to 65%; on MET(Y1235D), 98%; at PRKCE it was 90%; on YES, 100%; on FYN, 86%; at EPHB2 it was 100%. In addition, the remaining binding at 1 µM on MARK2 is 100%; at CHEK2 it was 92%; in experiment [2] it was 100%; at DCAMKL3, 100%; on p38-beta it was 100%; on RET(V804L) it was 94%. The figures for the remaining binding at 1 µM at PIK3CA(I800L) and on DDR1 were 85% and 98%, respectively.

With `O=C(O)c1ccc(-c2coc3ncc(-c4ccccc4)cc23)cc1Cl` [SGC-CAMKK2-1N (UNC-YL-83)], the remaining binding at 1 µM at TNK1 came out at 100%; on MLCK, 100%; on DMPK, 72%; on FLT3(D835Y), 100%; at GRK3, 66%; on DYRK1A, 71%. Moreover, the remaining binding at 1 µM at HIPK4 worked out at 89%; on NIK, 94%; at WEE2, 93%; on MET, 91%; on IRAK1, 68%; on STK35, 88%. The remaining binding at 1 µM at MAST1 [3] stood at 100%; in experiment [4], 79%; at PAK1, 42%; at STK16 it was 42%; on ERK8, 86%; on AKT1 it was 100%. The remaining binding at 1 µM on PIK3CA(Q546K) worked out at 73%. The “Percent Control” value in the experiment on FLT3(ITD,F691L) was 81.
